The target of data set [1] is T1, Phosphatidylinositol 4,5-bisphosphate 3-kinase catalytic subunit delta isoform (Homo sapiens) (UniProt O00329).
T1 sequence (whole entry): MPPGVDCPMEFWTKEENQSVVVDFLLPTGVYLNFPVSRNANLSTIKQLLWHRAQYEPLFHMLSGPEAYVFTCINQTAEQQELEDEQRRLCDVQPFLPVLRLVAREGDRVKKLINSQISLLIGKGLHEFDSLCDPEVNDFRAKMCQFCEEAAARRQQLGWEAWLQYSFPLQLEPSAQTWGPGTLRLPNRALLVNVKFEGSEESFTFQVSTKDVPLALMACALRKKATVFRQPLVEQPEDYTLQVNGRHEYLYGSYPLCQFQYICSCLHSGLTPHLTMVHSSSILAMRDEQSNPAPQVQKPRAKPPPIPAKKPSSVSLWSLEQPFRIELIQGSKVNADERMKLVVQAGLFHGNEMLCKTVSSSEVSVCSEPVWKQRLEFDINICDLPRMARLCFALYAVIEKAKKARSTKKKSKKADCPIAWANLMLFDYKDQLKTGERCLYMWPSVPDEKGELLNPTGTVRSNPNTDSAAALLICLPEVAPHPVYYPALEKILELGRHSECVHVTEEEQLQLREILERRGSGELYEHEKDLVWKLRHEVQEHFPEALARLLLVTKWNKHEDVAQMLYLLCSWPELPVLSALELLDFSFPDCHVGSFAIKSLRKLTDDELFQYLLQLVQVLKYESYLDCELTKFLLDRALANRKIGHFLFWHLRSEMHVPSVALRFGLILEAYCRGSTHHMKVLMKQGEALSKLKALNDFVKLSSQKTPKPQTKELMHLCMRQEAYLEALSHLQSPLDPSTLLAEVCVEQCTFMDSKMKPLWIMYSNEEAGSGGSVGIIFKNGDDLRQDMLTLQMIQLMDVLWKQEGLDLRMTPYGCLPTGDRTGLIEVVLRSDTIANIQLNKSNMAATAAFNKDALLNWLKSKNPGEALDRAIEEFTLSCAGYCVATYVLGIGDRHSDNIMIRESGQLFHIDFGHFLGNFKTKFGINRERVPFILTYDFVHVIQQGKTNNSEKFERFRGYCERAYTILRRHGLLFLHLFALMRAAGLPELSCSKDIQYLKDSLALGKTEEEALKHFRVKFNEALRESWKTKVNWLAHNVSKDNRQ
Description: Inhibition of N-terminal His6-tagged recombinant full length human PI3Kdelta expressed in baculovirus infected Sf21 insect cells at 0.1 uM by HTRF assay relative to control.

For data set [2], the system named is SU-DHL-6. Description: Antiproliferative activity against human SU-DHL-6 cells assessed as cell growth inhibition measured after 72 hrs by MTT assay. It counts as functional, cell-based. The following applies: SU-DHL-6, 72 h. (In general: Formazan colour is commonly taken as a measure of viable cells.)
For data set [3], the system named is SUD4. Nature of the data set: Antiproliferative activity against human SU-DHL-4 cells assessed as cell growth inhibition measured after 72 hrs by MTT assay. It counts as functional, cell-based. Particulars: SU-DHL-4, 72 h.
In data set [4] the test system is DOHH-2. Description: Antiproliferative activity against human DOHH-2 cells assessed as cell growth inhibition measured after 72 hrs by MTT assay. It counts as functional, cell-based. The following applies: DOHH-2, 72 h.
Data set [5] deals with Phosphatidylinositol 4,5-bisphosphate 3-kinase catalytic subunit beta isoform (Homo sapiens, UniProt P42338). Nature of the data set: Inhibition of N-terminal His6-tagged recombinant full length human PI3Kbeta expressed in baculovirus infected Sf21 insect cells at 1 uM by HTRF assay relative to control. For orientation: TR-FRET usually uses a lanthanide donor and a delayed reading to cut background.
Sequence of Phosphatidylinositol 4,5-bisphosphate 3-kinase catalytic subunit beta isoform (P42338 whole entry, looked up, canonical isoform): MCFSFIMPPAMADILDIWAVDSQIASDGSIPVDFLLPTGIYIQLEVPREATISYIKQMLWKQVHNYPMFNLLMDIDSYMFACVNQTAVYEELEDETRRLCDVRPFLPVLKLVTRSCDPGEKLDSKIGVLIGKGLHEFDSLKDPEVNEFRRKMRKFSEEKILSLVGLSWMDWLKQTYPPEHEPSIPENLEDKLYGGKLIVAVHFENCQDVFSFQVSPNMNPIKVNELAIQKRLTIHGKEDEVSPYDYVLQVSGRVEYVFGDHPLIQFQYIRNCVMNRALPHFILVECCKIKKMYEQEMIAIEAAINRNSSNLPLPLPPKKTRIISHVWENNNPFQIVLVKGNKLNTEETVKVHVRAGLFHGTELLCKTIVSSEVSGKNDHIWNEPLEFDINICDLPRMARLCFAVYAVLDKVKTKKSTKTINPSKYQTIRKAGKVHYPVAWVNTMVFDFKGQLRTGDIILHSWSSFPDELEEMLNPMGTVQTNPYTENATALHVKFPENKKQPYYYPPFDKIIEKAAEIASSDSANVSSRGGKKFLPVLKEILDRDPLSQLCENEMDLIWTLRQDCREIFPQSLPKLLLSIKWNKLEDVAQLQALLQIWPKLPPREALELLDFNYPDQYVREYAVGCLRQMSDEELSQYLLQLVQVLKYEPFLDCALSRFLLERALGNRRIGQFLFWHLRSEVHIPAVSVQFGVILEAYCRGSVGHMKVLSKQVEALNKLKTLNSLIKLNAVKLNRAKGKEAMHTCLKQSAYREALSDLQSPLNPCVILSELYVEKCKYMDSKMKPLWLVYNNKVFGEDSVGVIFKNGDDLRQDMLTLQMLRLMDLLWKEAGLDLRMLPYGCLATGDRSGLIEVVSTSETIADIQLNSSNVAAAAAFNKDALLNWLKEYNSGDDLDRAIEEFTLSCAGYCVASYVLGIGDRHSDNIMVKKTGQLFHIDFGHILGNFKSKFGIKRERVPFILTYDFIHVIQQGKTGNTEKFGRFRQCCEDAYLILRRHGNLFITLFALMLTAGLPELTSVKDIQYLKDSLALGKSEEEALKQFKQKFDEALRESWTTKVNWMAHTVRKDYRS

Data set [6] addresses T2, Phosphatidylinositol 4,5-bisphosphate 3-kinase catalytic subunit gamma isoform (Homo sapiens, UniProt P48736). Nature of the data set: Inhibition of N-terminal His6-tagged recombinant full length human PI3Kgamma expressed in baculovirus infected Sf21 insect cells at 0.1 uM by HTRF assay relative to control.
Data set [7] deals with Phosphatidylinositol 4,5-bisphosphate 3-kinase catalytic subunit alpha isoform (Homo sapiens, UniProt P42336). Description: Inhibition of N-terminal His6-tagged recombinant full length human PI3Kalpha expressed in baculovirus infected Sf21 insect cells at 1 uM by HTRF assay relative to control.
Sequence of Phosphatidylinositol 4,5-bisphosphate 3-kinase catalytic subunit alpha isoform (P42336 whole entry, canonical isoform): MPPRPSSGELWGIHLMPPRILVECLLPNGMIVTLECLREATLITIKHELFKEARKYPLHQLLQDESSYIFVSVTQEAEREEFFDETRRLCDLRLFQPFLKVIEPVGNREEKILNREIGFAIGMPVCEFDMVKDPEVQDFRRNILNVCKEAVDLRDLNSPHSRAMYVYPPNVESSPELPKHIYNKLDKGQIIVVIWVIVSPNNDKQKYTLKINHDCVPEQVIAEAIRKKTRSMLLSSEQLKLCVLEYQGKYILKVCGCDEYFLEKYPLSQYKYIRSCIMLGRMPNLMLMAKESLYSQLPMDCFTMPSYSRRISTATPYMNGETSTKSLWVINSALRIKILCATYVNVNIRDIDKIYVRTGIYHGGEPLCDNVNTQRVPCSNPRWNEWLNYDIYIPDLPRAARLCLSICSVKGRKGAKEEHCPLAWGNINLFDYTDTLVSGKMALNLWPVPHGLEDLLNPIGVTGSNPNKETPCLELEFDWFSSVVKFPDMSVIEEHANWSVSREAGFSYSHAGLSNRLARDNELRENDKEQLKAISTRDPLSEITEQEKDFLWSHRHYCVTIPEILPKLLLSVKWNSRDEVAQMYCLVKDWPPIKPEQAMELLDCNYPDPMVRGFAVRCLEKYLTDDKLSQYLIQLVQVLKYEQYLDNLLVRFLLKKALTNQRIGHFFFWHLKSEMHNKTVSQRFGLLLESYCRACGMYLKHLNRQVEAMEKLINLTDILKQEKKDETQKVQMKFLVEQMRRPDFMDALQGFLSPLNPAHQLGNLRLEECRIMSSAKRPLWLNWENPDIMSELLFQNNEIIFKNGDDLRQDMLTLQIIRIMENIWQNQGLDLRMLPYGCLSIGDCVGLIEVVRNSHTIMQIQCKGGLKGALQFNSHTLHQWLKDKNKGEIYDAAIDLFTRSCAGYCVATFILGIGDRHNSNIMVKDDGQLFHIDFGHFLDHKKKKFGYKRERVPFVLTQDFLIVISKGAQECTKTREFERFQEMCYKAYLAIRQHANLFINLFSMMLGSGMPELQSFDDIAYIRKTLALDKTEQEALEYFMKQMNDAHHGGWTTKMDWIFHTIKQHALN
Data set [8] has as its target T1, Phosphatidylinositol 4,5-bisphosphate 3-kinase catalytic subunit delta isoform (Homo sapiens). Description: Inhibition of N-terminal His6-tagged recombinant full length human PI3Kdelta expressed in baculovirus infected Sf21 insect cells at 1 uM by HTRF assay relative to control.
Data set [9] addresses T2, Phosphatidylinositol 4,5-bisphosphate 3-kinase catalytic subunit gamma isoform. Description: Inhibition of N-terminal His6-tagged recombinant full length human PI3Kgamma expressed in baculovirus infected Sf21 insect cells at 1 uM by HTRF assay relative to control.
Data set [10] is described as follows: Metabolic stability in human liver microsomes assessed as half life at 1 uM measured upto 60 mins in presence of NADPH. It counts as ADME, Microsome.
Data set [11] in a line: Metabolic stability in human liver microsomes assessed as compound remaining at 1 uM measured upto 60 mins in presence of NADPH. It counts as ADME, Microsome. The following applies: read-out: Stability. On the technique in general: Microsomes from liver hold many membrane-bound enzymes, among them those of drug oxidation.
Data set [12] can be described thus: Metabolic stability in human liver microsomes assessed as clearance at 1 uM measured upto 60 mins in presence of NADPH by measuring protein. The following applies: 1 h. Type of data set: ADME, Microsome.

We go through 15 compounds from ChEMBL document CHEMBL5120922, “Discovery, Optimization, and Evaluation of Potent and Selective PI3Kδ-γ Dual Inhibitors for the Treatment of B-cell Malignancies” (J Med Chem, 2022).

Structures are written as SMILES. pIC50: −log10 of the molar value.

As usually defined, the inhibition is the relative decrease from the control value, in per cent. In general, pIC50 refers to −log10 of the IC50, conventionally taken in molar units. As a reminder, the half-life is how long it takes for the measured level to halve.

T2 sequence (P48736 whole entry, looked up, canonical isoform): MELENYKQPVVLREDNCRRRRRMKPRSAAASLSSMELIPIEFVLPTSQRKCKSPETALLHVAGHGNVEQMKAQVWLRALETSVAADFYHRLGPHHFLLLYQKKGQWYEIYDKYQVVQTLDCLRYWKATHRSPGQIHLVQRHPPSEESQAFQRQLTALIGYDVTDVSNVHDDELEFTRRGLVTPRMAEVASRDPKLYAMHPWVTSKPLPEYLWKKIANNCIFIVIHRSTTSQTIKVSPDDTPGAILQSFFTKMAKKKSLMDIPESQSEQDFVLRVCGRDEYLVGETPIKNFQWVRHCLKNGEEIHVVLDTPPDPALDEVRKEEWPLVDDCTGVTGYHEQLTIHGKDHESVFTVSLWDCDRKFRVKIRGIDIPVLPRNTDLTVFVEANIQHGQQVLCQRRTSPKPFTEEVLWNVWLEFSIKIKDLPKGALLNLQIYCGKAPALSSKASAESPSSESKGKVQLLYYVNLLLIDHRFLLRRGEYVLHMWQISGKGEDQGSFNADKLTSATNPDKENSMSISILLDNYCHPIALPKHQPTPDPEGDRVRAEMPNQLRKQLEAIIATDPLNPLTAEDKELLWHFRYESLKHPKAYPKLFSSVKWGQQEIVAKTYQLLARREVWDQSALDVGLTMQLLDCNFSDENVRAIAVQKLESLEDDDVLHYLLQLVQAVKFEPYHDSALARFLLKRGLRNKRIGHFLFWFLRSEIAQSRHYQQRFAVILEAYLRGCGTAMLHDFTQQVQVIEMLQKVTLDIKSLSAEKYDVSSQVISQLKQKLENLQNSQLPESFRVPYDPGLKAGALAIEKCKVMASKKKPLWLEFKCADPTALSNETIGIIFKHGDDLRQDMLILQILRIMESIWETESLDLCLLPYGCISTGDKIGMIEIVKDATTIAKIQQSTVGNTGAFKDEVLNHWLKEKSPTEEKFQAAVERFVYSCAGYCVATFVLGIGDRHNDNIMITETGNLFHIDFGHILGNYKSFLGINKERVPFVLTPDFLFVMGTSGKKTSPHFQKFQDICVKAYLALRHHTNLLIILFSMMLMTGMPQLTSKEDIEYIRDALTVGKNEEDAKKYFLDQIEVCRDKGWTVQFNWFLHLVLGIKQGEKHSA

`C[C@H]1CC[C@@H](c2nc3cccc(Cl)c3c(=O)n2N2CCOCC2)N1c1nc(N)nc(N)c1C#N`: the inhibition in [1] was determined as 10%; in data set [5] it was 33%; in [6], 10%; in [7] it was 72%; in data set [8], 11%; in data set [9] it was 0%. In addition, the figures for the pIC50 in [2], in data set [3] and in data set [4] were 6.51, 6.70 and 6.43, respectively.
Consider `C[C@H]1CC[C@@H](c2nc3cccc(Cl)c3c(=O)n2-c2ccccc2)N1c1nc(F)nc2[nH]cnc12`, for which the inhibition in [1] was 27%; in data set [5] it was -1%; in [6] it was 76%; in [7], 49%; in data set [8], 13%; in data set [9] it was 34%. The pIC50 in data set [2] is 6.31; in [3] it was 6.14; in [4] it was 6.04.
With `C[C@H]1CC[C@@H](c2nc3cccc(Cl)c3c(=O)n2-c2ccccc2)N1c1cc(Cl)nc(N)n1`, the inhibition in [1] came to 76%; in data set [5], 92%; in [6], 97%; in data set [7] it was 88%; in data set [8] it was 23%; in data set [9], 96%. For the same compound, the values for the pIC50 in data set [2], in data set [3] and in data set [4] were 5.50, 5.54 and 5.53, respectively.
Take `C[C@H]1CC[C@@H](c2nc3cccc(Cl)c3c(=O)n2N2CCOCC2)N1c1nc(N)nc2[nH]cnc12`: the inhibition was 81% in data set [1]; 53% in data set [5]; 45% in [6]; 91% in data set [7]; 5% in [8]; -2% in data set [9]. Also, the pIC50 in data set [2] is 6.38; in data set [3], 6.22; in [4] it was 5.84.
With `C[C@H]1CC[C@@H](c2nc3cccc(Cl)c3c(=O)n2-c2ccccc2)N1c1nc(N)nc2[nH]ccc12`, the inhibition in [1] stood at 74%; in data set [5], 84%; in data set [6] it was 88%; in [7], 82%; in data set [8], 37%; in [9], 41%. The pIC50 is 5.74 in data set [2], 5.31 in [3] and 5.44 in data set [4].
With `N#Cc1c(N)nc(N)nc1N1[C@H](c2nc3cccc(F)c3c(=O)n2-c2cc(F)cc(F)c2)C[C@@H]2CCCC[C@@H]21`, the inhibition turned out to be 82% in data set [1]; 98% in data set [5]; 93% in data set [6]; 84% in data set [7]; 23% in [8]; 75% in data set [9]. Also, the pIC50 was 5.83 in data set [2], 5.84 in data set [3] and 5.61 in data set [4].
For `C[C@H]1CC[C@@H](c2nc3cccc(Cl)c3c(=O)n2-c2ccccc2)N1c1ccnc(N)n1`, the inhibition in data set [1] was 88%; in [5] it was 106%; in data set [6] it was 99%; in data set [7] it was 78%; in data set [8], 11%; in data set [9], 100%. In addition, the pIC50 in data set [2] is 5.74; in [3], 5.92; in data set [4], 5.40.
As for `C[C@H]1CC[C@@H](c2nc3cccc(-c4cccnc4)c3c(=O)n2-c2ccccc2)N1c1nc(N)nc(N)c1C#N`, the half-life at 1 µM in data set [10] was 37.1 min. In data set [11], the remaining at 1 h, 1 µM came out at 32.6%. Moreover, the pIC50 in data set [2] is 6.55; in data set [3] it was 6.92; in data set [4], 6.00. Also, the figures for the inhibition in data set [5], in [6] and in [7] were 19%, 25% and -7%, respectively. The CLH in data set [12] was 37.4 mL/min/g.
Regarding `C[C@H]1CC[C@@H](c2nc3cccc(Cl)c3c(=O)n2-c2cccnc2)N1c1nc(N)nc2[nH]cnc12`, the inhibition in data set [1] amounted to 15%; in [5], 54%; in data set [6], 39%; in [7] it was 89%; in [8] it was 7%; in data set [9] it was 0%. Further, the pIC50 in data set [2] is 6.39; in data set [3] it was 6.29; in data set [4], 6.19.
On to `C[C@H]1CC[C@@H](c2nc3cccc(Cl)c3c(=O)n2-c2cc(F)cc(F)c2)N1c1nc(N)nc2[nH]cnc12`, for which the inhibition worked out at 12% in data set [1]; 68% in data set [5]; 51% in data set [6]; 90% in [7]; 7% in data set [8]; 2% in data set [9]. Moreover, the pIC50 in [2] was 6.08; in data set [3], 6.11; in [4] it was 5.66.
Turning to `C[C@H]1CC[C@@H](c2nc3cccc(Cl)c3c(=O)n2-c2cc(F)cc(F)c2)N1c1nc(N)nc(N)c1C#N`, the inhibition in data set [1] is 4%; in data set [5] it was 43%; in data set [6] it was 14%; in [7], 66%; in [8], 1%; in data set [9], -8%. Moreover, the values for the pIC50 in [2], in [3] and in data set [4] were 6.24, 6.44 and 5.93, respectively.
On to `C[C@H]1CC[C@@H](c2nc3cccc(Cl)c3c(=O)n2-c2cccc(F)c2)N1c1nc(N)nc2[nH]cnc12`, for which the inhibition in [1] is 5%; in data set [5], 57%; in data set [6], 1%; in data set [7], 58%; in [8] it was -4%. Moreover, the pIC50 in data set [2] is 6.32; in data set [3], 6.46; in data set [4], 5.58.
Take `Cc1cc(N2[C@@H](C)CC[C@H]2c2nc3cccc(Cl)c3c(=O)n2-c2ccccc2)nc(N)n1`: the inhibition stood at 93% in data set [1]; 105% in [5]; 99% in data set [6]; 96% in data set [7]; 75% in [8]; 96% in [9]. Further, the values for the pIC50 in [2], in data set [3] and in data set [4] were 5.82, 5.95 and 5.71, respectively.
As to `N#Cc1c(N)nc(N)nc1N1[C@H](c2nc3cccc(Cl)c3c(=O)n2-c2cc(F)cc(F)c2)C[C@@H]2CCCC[C@@H]21`, the inhibition in data set [1] was found to be 34%; in [5] it was 84%; in data set [6] it was 85%; in [7] it was 79%; in data set [8], 18%; in [9], 49%. For the same compound, the negative logarithm of the IC50 (pIC50) in data set [2] was 5.56; in data set [3] it was 5.74; in data set [4], 5.45.
Consider `Cc1cccc(C#Cc2cccc3nc([C@@H]4CC[C@H](C)N4c4nc(N)nc(N)c4C#N)n(-c4ccccc4)c(=O)c23)c1`, for which the inhibition in data set [1] worked out at 64%; in data set [5] it was 69%; in data set [6] it was 83%; in data set [7], 35%. Also, the results for the pIC50 in data set [2], in [3] and in data set [4] were 5.58, 5.48 and 5.38, respectively.
